Experimental data as given in patent US20240076347A1, “METHODS FOR PREVENTING FUNGAL INFECTIONS” (Cidara Therapeutics, Inc., priority 2016, published 2024).
Numbered stars: 1 amine (or outer) side, 2 acyl side, 3 side chain; on linkers, the order of the positions; unused ones are H or OH. Bridge positions count the residues as written; N and C are the ends. Square brackets hold non-standard residues; d marks the D form. Peptide text beside a SMILES is read from it. * marks the point of attachment. ξ: configuration not given here. Orn(4R-OH,5R-OCH2CH2NMe3+) = C[N+](C)(C)CCO[C@@H](N[*:3])[C@H](O)C[C@H](N[*:1])C(=O)[*:2]; pTerphenylCO(4''-OnC5H11) = CCCCCOc1ccc(-c2ccc(-c3ccc(C(=O)*)cc3)cc2)cc1; hTyr(3S-OH,4S-OH) = N[C@H](C(=O)O)[C@H](O)[C@@H](O)c1ccc(O)cc1; X1 = C[C@H]1CN([*:1])C(C(=O)[*:2])C1O; Hyp = O=C(O)[C@@H]1C[C@@H](O)CN1; ξT = CC(O)C(N)C(=O)O

Columns and labels:
[1] = test system: C. albicans SC-5314 biofilms; test: Mature phase biofilms (treatment) on silicone elastomer discs; type: cell-based, Candida albicans
Description: Biofilms were formed on silicone elastomer (SE) discs using a catheter-associated-biofilm model (Chandra et al., Nature Protocols 3:1909, 2008; Chandra et al., J. […] Chandra et al., J. Dental Research 80: 903, 2001). For evaluation of activity against adhesion phase biofilms (prevention), Candida cells were adhered to catheter discs for 90 min. […] Discs incubated with fluconazole or media alone were used as controls in all experiments. […] Chandra et al., J. […] Chandra et al., J. Dental Research 80: 903, 2001). Following incubation with drugs, discs were transferred to fresh plates containing phosphate buffered saline with XTT and menadione, incubated for 3 h at 37° C. and optical density was read at 492 nm. Separate batches of biofilms were stained with fluorescent dyes (FUN1™, CONA) and observed under Confocal Scanning Laser Microscope (CSLM) to evaluate biofilm architecture and thickness (Chandra et al., Nature Protocols 3:1909, 2008; Chandra et al., J. […] Statistical analyses for all data were performed using GraphPad Prism 6 software. Drug treated groups were compared to control untreated groups using unpaired t-tests.

[2] = test system: Candida albicans ATCC SC5314; test: MIC used for free drug plasma concentration over MIC, candidiasis model; type: cell-based
C. parapsilosis = test: Neutropenic murine disseminated candidiasis model, PK/PD target determination; type: in vivo, Candida parapsilosis; conditions: for Static dose: single IP dose, 168 h
Description: Infection model. A neutropenic, murine, disseminated candidiasis model was used for the treatment studies. The mice were rendered neutropenic (polymorphonuclear cell count, <100/mm3) by injecting 150 mg/kg of cyclophosphamide (Mead Johnson Pharmaceuticals, Evansville, IN) subcutaneously 4 days before infection, 100 mg/kg of cyclophosphamide 1 day before infection, and additional cyclophosphamide doses (100 mg/kg) on Day 2 and Day 4 after infection to ensure neutropenia throughout the 168 h (7 d) study period. Three mice were included in each treatment and control group.
The organisms were subcultured on SDA plates 24 h prior to infection. The inoculum was prepared by placing 3 to 5 colonies into 5 ml of sterile pyrogen-free 0.15 M NaCl warmed to 35° C. The final inoculum was adjusted to a 0.6 transmittance at 530 nm. The fungal count of the inoculum determined by viable counts on SDA was 6.1±0.2 log10 CFU/ml.
Disseminated infection with the Candida strains was achieved by injection of 0.1 ml of the inoculum via the lateral tail vein 2 h prior to the start of antifungal therapy. At the end of the study period, the animals were sacrificed by CO2 asphyxiation. The kidneys of each mouse were aseptically removed and placed in 0.15 M NaCl at 4° C. The kidneys were homogenized and serially diluted 1:10, and the aliquots were plated onto SDA for viable fungal colony counts after incubation for 24 h at 35° C. The lower limit of detection was 100 CFU/ml. The results are expressed as the mean CFU/kidney for three mice.
Treatment efficacy and pharmacodynamic target determination of CD101. Neutropenic mice were infected with one of 10 Candida strains as described above. […] Five dose levels that varied from 0.25 to 64 mg/kg were administered once in a 0.2-ml volume by IP route for the 168 h study period. Due to enhanced effect against single isolate, additional studies at 0.0156 and 0.0625 mg/kg was examined for C. glabrata 5592. Groups of three mice were used for each dosing regimen and control group. At the end of the treatment period (168 h), the mice were euthanized, and their kidneys were immediately processed for CFU determination as described above.
Data analysis. A sigmoid dose-effect (Hill) model was used to measure the in vivo potency of CD101. The efficacy endpoints included the dose level required to produce a 24 h net static effect (no change in organism burden compared to that at the start of therapy) and the dose required to achieve a 1-log10 reduction in colony counts (relative to the burden at the start of therapy), when achieved. The maximum response (Emax) was measured as the difference in the number of CFU/kidney relative to that of the untreated control animals. The doses associated with the stasis and 1-log10 endpoint for each strain was calculated using the equation: log10 D=[log10 (E/(Emax−E))/N]+log10 ED50, where D is the drug dose, E is the control growth in untreated animals, Emax is the maximal effect, Nis the slope of the dose-response relationship, and ED50 is the dose needed to achieve 50% of the maximal effect. The associated AUC/MIC targets were then calculated for each strain. […] The calculations were performed using both total and free drug concentrations. The coefficient of determination (R^2) was used to estimate the variance that might be due to regression with the PK/PD index. Kruskal-Wallis one-way analysis of variance (ANOVA) was used to determine if the differences in PK/PD targets were significant between the species.

[3] = test system: A. fumigatus clinical isolates; test: MEC, CLSI broth microdilution (M38-A2), SENTRY clinical isolates; type: cell-based, Aspergillus fumigatus; conditions: 153 isolates, 2014 and 2015 SENTRY
Description: The in vitro activity of CD101 was previously evaluated as part of the SENTRY international surveillance program using CLSI broth microdilution methodology (M38-A2, M27-A3; Pfaller, et al 2017). […] These susceptibility data were then compared graphically to CD101 plasma concentrations from studies in healthy adults, adjusted for plasma protein binding. Nonclinical efficacy in a murine model of Pneumocystis pneumonia were also considered to evaluate CD101 doses for clinical investigation of antifungal prophylaxis.
The in vitro activity of CD101 was evaluated against 153 A. fumigatus clinical isolates collected as part of the 2014 and 2015 JMI international SENTRY surveillance program. Susceptibility was determined by measuring the minimal effective concentration (MEC) values in accordance with CLSI broth microdilution guidelines (M38-A2). In vivo tissue distribution of CD101 in SD rats (N=3/time up to 5 d) after a 5 mg/kg IV CD101 dose. Plasma/tissue concentrations were measured by LC-MS/MS.

[4] = only two strains achieved the endpoint

CCCCCOc1ccc(-c2ccc(-c3ccc(C(=O)N[C@H]4C[C@@H](O)[C@@H](OCC[N+](C)(C)C)NC(=O)C5C(O)[C@@H](C)CN5C(=O)[C@H]([C@@H](C)O)NC(=O)[C@H]([C@H](O)[C@@H](O)c5ccc(O)cc5)NC(=O)[C@@H]5C[C@@H](O)CN5C(=O)C(C(C)O)NC4=O)cc3)cc2)cc1 (stereo partly drawn) [CD101] ({pTerphenylCO(4''-OnC5H11)}-[Orn(4R-OH,5R-OCH2CH2NMe3+)][ξT][Hyp][hTyr(3S-OH,4S-OH)]T[X1]; lactam 1-C)
biofilm architecture (CSLM) ([1]; 0.25 and 1 μg/ml): eradicated and showed bulged, deformed/broken cells | biofilm metabolic activity (XTT) ([1]; 0.25 and 1 μg/ml, 24 h, vs untreated, P<0.05): significantly less metabolic activity | thickness of biofilms ([1]; CD101 exposed, untreated control 43 μm, P<0.05): 24 μm | MIC [2]: 0.03 µg/mL | Stasis 24 h Ave free drug AUC/MIC (C. parapsilosis; 20423.072): 1.39 | Stasis free drug AUC0-168 h/MIC (C. parapsilosis; 20423.072): 9.74 | Stasis total drug AUC0-168 h/MIC (C. parapsilosis; 20423.072): 1217.49 | Static dose (C. parapsilosis; 20423.072): 9.62 mg/kg | Stasis 24 h Ave free drug AUC/MIC (C. parapsilosis; 20477.048): 3.82 | Stasis free drug AUC0-168 h/MIC (C. parapsilosis; 20477.048): 26.72 | Stasis total drug AUC0-168 h/MIC (C. parapsilosis; 20477.048): 3339.42 | Static dose (C. parapsilosis; 20477.048): 52.96 mg/kg | median stasis 24 h free drug AUC/MIC target (C. parapsilosis; [4]): 2.61 | median stasis free drug AUC0-168/MIC target (C. parapsilosis; [4]): 18.2 | MEC50 [3]: 0.015 µg/mL | MEC90 [3]: 0.015 µg/mL
